Some test systems named below: RXF 393 renal; MALME-3M melanoma; MDA-MB-435; SF-268 CNS; SF-539 CNS; HOP-62 NSCLC; EKVX NSCLC; HT29 colon; KM12 colon; M14 melanoma.
What all share (assay): NCI-60 cell line screen, 48 h

Results on 9 molecules are retold here after PubChem BioAssay (NCI).

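Where inhibition never reached the appropriate level, the endpoint shown equals the highest concentration tested. Otherwise, values were interpolated linearly from a five-concentration, 48-hour dose response in 96-well plates. Here, GI50 denotes the concentration required for 50% inhibition of growth. TGI marks complete inhibition of growth.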

As for `COc1ccc2c(c1)C(=Nc1ccc(F)c(Cl)c1)c1c-2c(Nc2ccc(F)c(Cl)c2)nc2ccccc12`, the GI50 was 0.579 µM in the experiment with RXF 393 renal; more than 100 µM in the experiment on MALME-3M melanoma; more than 100 µM with MDA-MB-435; 29.7 µM in the experiment on SF-268 CNS; 27 µM in the experiment on SF-539 CNS; 13.7 µM in the experiment with HOP-62 NSCLC. The GI50 with EKVX NSCLC was 89.2 µM; with HT29 colon it was more than 100 µM; with KM12 colon, more than 100 µM; in the experiment with M14 melanoma it was 47.1 µM. For the same molecule, the TGI with RXF 393 renal was 37.1 µM; in the experiment on MALME-3M melanoma, more than 100 µM; in the experiment with MDA-MB-435, more than 100 µM; in the experiment with SF-268 CNS it was more than 100 µM; with SF-539 CNS it was more than 74.9 µM; in the experiment on HOP-62 NSCLC, 32.4 µM. Moreover, the TGI in the experiment with EKVX NSCLC, in the experiment on HT29 colon, with KM12 colon and in the experiment with M14 melanoma was more than 100 µM in each case.
As to `Oc1ccc2c(=S)cc(-c3ccc(Br)cc3)oc2c1O`, the GI50 with RXF 393 renal was 2.51 µM; in the experiment with MALME-3M melanoma, 1.87 µM; in the experiment with MDA-MB-435, 2.98 µM; in the experiment on SF-268 CNS, 2.18 µM; in the experiment on SF-539 CNS it was 1.98 µM; in the experiment on HOP-62 NSCLC, 1.5 µM. Also, the GI50 is 17.9 µM in the experiment on EKVX NSCLC, 4.56 µM in the experiment on HT29 colon, 3.35 µM in the experiment on KM12 colon and 2.01 µM with M14 melanoma. Moreover, the TGI with RXF 393 renal is 8.78 µM; with MALME-3M melanoma it was 6.06 µM; in the experiment on MDA-MB-435, more than 100 µM; in the experiment on SF-268 CNS it was more than 100 µM; with SF-539 CNS, 7.28 µM; in the experiment with HOP-62 NSCLC it was 6.73 µM. Also, the TGI came to 56.6 µM with EKVX NSCLC, 25.9 µM with HT29 colon, 25.6 µM in the experiment on KM12 colon and 6.56 µM in the experiment with M14 melanoma.
With `Brc1ccccc2cc(-c3ccccc3)nc1-2`, the TGI is 16.7 µM in the experiment on RXF 393 renal; 20.4 µM in the experiment with MALME-3M melanoma; more than 61 µM in the experiment with MDA-MB-435; 28.7 µM with SF-268 CNS; 17.7 µM in the experiment with SF-539 CNS; 42.9 µM in the experiment on HOP-62 NSCLC. Also, the TGI is 40.4 µM with EKVX NSCLC, more than 90.3 µM with HT29 colon, 32.8 µM in the experiment with KM12 colon and 28.3 µM with M14 melanoma.
With `Cc1ccc(/C=N/NC(=O)c2ccccc2Oc2ccccc2)o1`, the GI50 with RXF 393 renal was 35.6 µM; in the experiment on MALME-3M melanoma it was 36.8 µM; in the experiment with MDA-MB-435, 34.6 µM; with SF-268 CNS it was 42.9 µM; with SF-539 CNS, more than 83.6 µM; in the experiment on HOP-62 NSCLC it was 70.9 µM. The GI50 in the experiment on EKVX NSCLC is 38.8 µM; with HT29 colon it was 63.8 µM; with KM12 colon, 40 µM; with M14 melanoma it was 40.5 µM. For the same molecule, the TGI in the experiment on RXF 393 renal, in the experiment on MALME-3M melanoma, with MDA-MB-435, with SF-268 CNS, with SF-539 CNS and in the experiment with HOP-62 NSCLC was more than 100 µM each time. Also, the TGI in the experiment on EKVX NSCLC, in the experiment on HT29 colon, in the experiment with KM12 colon and in the experiment with M14 melanoma was more than 100 µM throughout.
Consider `Cc1sc(C(=O)c2cncnc2N[C@@H]2C[C@H](COS(N)(=O)=O)[C@@H](O)C2)cc1[C@@H]1NCCc2ccc(Cl)cc21`, for which the GI50 in the experiment with RXF 393 renal was 6.35 µM; with MALME-3M melanoma it was 0.0394 µM; in the experiment on MDA-MB-435, 0.156 µM; in the experiment on SF-268 CNS it was 14.4 µM; in the experiment with SF-539 CNS, 1.48 µM; in the experiment with HOP-62 NSCLC it was 12.9 µM. Moreover, the GI50 is 8.88 µM in the experiment on EKVX NSCLC, 0.234 µM in the experiment on HT29 colon, 13.1 µM in the experiment on KM12 colon and 0.572 µM in the experiment with M14 melanoma. Also, the TGI with RXF 393 renal was determined as 22 µM; in the experiment with MALME-3M melanoma, 15.5 µM; with MDA-MB-435, 14.8 µM; with SF-268 CNS it was 32.4 µM; in the experiment on SF-539 CNS it was 20.3 µM; in the experiment with HOP-62 NSCLC, 28.1 µM. The TGI stood at 25.7 µM in the experiment with EKVX NSCLC, 20.9 µM with HT29 colon, 28.3 µM with KM12 colon and 21.6 µM in the experiment on M14 melanoma.
`COc1cc2c(cc1OC)C(C(CCCCCC(CCC(C)C)C1NCCc3cc(OC)c(OC)cc31)CCC(C)C)NCC2` (stereo not drawn): the GI50 was 1.3 µM in the experiment on RXF 393 renal; 2.01 µM with MALME-3M melanoma; 0.516 µM in the experiment on MDA-MB-435; 1.34 µM in the experiment with SF-268 CNS; 1.79 µM with SF-539 CNS; 1.55 µM in the experiment on HOP-62 NSCLC. Also, the GI50 in the experiment with EKVX NSCLC is 1.49 µM; in the experiment on HT29 colon, 0.328 µM; in the experiment with KM12 colon it was 0.438 µM; in the experiment on M14 melanoma, 0.449 µM. Besides, the TGI amounted to 2.75 µM in the experiment on RXF 393 renal; 4.03 µM with MALME-3M melanoma; 2.25 µM in the experiment on MDA-MB-435; 2.79 µM with SF-268 CNS; 3.27 µM in the experiment with SF-539 CNS; 3.11 µM in the experiment with HOP-62 NSCLC. Further, the TGI in the experiment on EKVX NSCLC is 3.2 µM; with HT29 colon it was 0.874 µM; in the experiment on KM12 colon, 1.26 µM; with M14 melanoma, 1.51 µM.
On to `COc1ccc(Oc2nc3cc(N)cc(N)c3nc2-c2ccccc2)cc1`, for which the GI50 with RXF 393 renal is 19.9 µM; in the experiment with MDA-MB-435, 40.6 µM; with SF-268 CNS, 20.8 µM; in the experiment on SF-539 CNS it was 23.3 µM; with EKVX NSCLC it was 24.7 µM; in the experiment on HT29 colon it was 39.9 µM. Further, the GI50 with KM12 colon is 37.4 µM; with M14 melanoma it was more than 100 µM. In addition, the TGI was 73.9 µM with RXF 393 renal; more than 100 µM with MALME-3M melanoma; more than 100 µM with MDA-MB-435; more than 100 µM with SF-268 CNS; 61.1 µM with SF-539 CNS; 40.8 µM in the experiment on HOP-62 NSCLC. For the same molecule, the TGI is 63.1 µM in the experiment with EKVX NSCLC, more than 100 µM in the experiment with HT29 colon, more than 100 µM with KM12 colon and more than 100 µM with M14 melanoma.
In the case of `NS(=O)(=O)c1ccc(N=Nc2ccc[nH]c2=O)cc1`, the TGI in the experiment on RXF 393 renal, in the experiment on MALME-3M melanoma, with MDA-MB-435, in the experiment with SF-268 CNS, in the experiment on SF-539 CNS and with HOP-62 NSCLC was more than 100 µM each time. Also, the TGI with EKVX NSCLC, in the experiment with HT29 colon, in the experiment with KM12 colon and in the experiment with M14 melanoma was more than 100 µM in each case.
In the case of `O=C(Oc1ccccc1)N(c1ccccc1)c1ccccc1`, the GI50 is 25.8 µM in the experiment on RXF 393 renal; 25 µM in the experiment on MALME-3M melanoma; 24.4 µM with MDA-MB-435; 33.1 µM with SF-268 CNS; 30.4 µM in the experiment with SF-539 CNS; 32.2 µM with HOP-62 NSCLC. The GI50 in the experiment on EKVX NSCLC was 18.7 µM; with HT29 colon it was 36.9 µM; in the experiment on KM12 colon it was 28.7 µM; in the experiment on M14 melanoma it was 24.7 µM. In addition, the TGI was 92.6 µM in the experiment with RXF 393 renal; 91.4 µM in the experiment on MALME-3M melanoma; 75.9 µM in the experiment with MDA-MB-435; more than 100 µM in the experiment with SF-268 CNS; more than 100 µM with SF-539 CNS; more than 100 µM in the experiment with HOP-62 NSCLC. The TGI was more than 100 µM in the experiment on EKVX NSCLC, more than 100 µM with HT29 colon, more than 100 µM in the experiment on KM12 colon and 65.2 µM in the experiment on M14 melanoma.
